Measured values published in ChEMBL document CHEMBL4049381 (Medchemcomm, 2016).

Key:
[1] = molecular target: T1, Solute carrier organic anion transporter family member 2B1 (Homo sapiens, UniProt O94956, H618Q); test: Drug uptake assessed as human OATP2B1 H618Q mutant expressed in Xenopus laevis oocyte mediated drug accumulation at 0.003 uM after 30 mins by LC-MS/MS method relative to wild type protein; assay type: ADME; details: 0.5 h
[2] = molecular target: T2, Solute carrier organic anion transporter family member 2B1 (Homo sapiens, UniProt O94956, R607A); test: Drug uptake assessed as human OATP2B1 R607A mutant expressed in Xenopus laevis oocyte mediated drug accumulation at 0.003 uM after 30 mins by LC-MS/MS method relative to wild type protein; assay type: ADME; details: 0.5 h
T2 sequence (O94956 whole entry T392I/R607A): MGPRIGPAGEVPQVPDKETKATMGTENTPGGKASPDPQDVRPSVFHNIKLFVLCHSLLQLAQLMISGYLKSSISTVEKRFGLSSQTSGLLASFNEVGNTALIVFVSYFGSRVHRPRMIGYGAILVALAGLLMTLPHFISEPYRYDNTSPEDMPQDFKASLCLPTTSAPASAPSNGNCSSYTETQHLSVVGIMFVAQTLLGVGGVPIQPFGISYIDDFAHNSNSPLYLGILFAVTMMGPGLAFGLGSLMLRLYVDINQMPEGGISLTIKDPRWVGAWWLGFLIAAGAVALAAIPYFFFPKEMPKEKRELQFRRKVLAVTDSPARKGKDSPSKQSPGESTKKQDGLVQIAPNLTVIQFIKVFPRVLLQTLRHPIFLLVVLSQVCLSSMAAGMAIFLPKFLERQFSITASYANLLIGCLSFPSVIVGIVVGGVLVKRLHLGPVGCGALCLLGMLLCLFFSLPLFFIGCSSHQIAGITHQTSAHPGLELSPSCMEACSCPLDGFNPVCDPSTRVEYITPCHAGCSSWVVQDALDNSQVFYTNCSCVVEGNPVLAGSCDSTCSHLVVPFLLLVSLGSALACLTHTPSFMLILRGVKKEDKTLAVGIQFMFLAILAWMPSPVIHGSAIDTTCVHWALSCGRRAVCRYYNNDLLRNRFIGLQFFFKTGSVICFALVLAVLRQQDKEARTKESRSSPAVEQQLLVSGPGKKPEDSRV

[3] = molecular target: T3, Solute carrier organic anion transporter family member 2B1 (Homo sapiens, UniProt O94956); test: Drug uptake assessed as human OATP2B1 expressed in Xenopus laevis oocyte mediated drug accumulation per 30 mins per oocyte at 0.003 uM by LC-MS/MS method; assay type: ADME; details: 0.5 h
T3 sequence (O94956 whole entry): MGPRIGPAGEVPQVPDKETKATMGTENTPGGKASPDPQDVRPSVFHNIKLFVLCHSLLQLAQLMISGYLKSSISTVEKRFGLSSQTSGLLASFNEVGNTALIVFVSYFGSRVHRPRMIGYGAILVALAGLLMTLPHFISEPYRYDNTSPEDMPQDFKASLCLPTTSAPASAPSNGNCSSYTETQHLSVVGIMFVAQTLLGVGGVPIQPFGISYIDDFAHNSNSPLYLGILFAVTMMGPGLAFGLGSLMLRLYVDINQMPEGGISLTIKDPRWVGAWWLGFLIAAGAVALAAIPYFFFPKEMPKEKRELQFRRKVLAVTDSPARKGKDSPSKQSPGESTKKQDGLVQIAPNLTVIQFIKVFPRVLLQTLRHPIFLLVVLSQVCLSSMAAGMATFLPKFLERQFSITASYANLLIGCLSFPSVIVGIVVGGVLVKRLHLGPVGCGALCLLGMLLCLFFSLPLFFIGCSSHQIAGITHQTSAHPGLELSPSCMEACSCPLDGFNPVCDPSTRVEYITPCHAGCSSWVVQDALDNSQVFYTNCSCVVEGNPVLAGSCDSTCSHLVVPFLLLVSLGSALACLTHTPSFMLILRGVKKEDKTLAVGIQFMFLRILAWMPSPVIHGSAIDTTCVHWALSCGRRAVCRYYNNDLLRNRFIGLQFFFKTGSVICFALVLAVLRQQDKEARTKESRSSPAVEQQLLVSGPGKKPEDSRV

[4] = molecular target: T4, Solute carrier organic anion transporter family member 2B1 (Homo sapiens, UniProt O94956, H579Q); test: Drug uptake assessed as human OATP2B1 H579Q mutant expressed in Xenopus laevis oocyte mediated drug accumulation at 0.003 uM after 30 mins by LC-MS/MS method relative to wild type protein; assay type: ADME; details: 0.5 h
T4 sequence (O94956 whole entry T392I/H579Q): as the sequence (O94956 whole entry T392I/R607A) above, with H579Q, A607R counted along it

[5] = molecular target: T1, Solute carrier organic anion transporter family member 2B1; test: Drug uptake assessed as human OATP2B1 H618Q mutant expressed in Xenopus laevis oocyte mediated drug accumulation at 1 uM after 180 mins by LC-MS/MS method relative to wild type protein; assay type: ADME; details: 3 h
[6] = molecular target: T3, Solute carrier organic anion transporter family member 2B1; test: Drug uptake assessed as human OATP2B1 expressed in Xenopus laevis oocyte mediated drug accumulation per 180 mins per oocyte at 1 uM by LC-MS/MS method; assay type: ADME; details: 3 h
[7] = molecular target: T4, Solute carrier organic anion transporter family member 2B1; test: Drug uptake assessed as human OATP2B1 H579Q mutant expressed in Xenopus laevis oocyte mediated drug accumulation at 1 uM after 180 mins by LC-MS/MS method relative to wild type protein; assay type: ADME; details: 3 h
[8] = molecular target: T2, Solute carrier organic anion transporter family member 2B1; test: Drug uptake assessed as human OATP2B1 R607A mutant expressed in Xenopus laevis oocyte mediated drug accumulation at 1 uM after 180 mins by LC-MS/MS method relative to wild type protein; assay type: ADME; details: 3 h
[9] = molecular target: T4, Solute carrier organic anion transporter family member 2B1; test: Drug uptake assessed as human OATP2B1 H579Q mutant expressed in Xenopus laevis oocyte mediated drug accumulation at 1 uM after 120 mins by LC-MS/MS method relative to wild type protein; assay type: ADME; details: 2 h
[10] = molecular target: T1, Solute carrier organic anion transporter family member 2B1; test: Drug uptake assessed as human OATP2B1 H618Q mutant expressed in Xenopus laevis oocytes mediated drug accumulation at 1 uM after 120 mins by LC-MS/MS method relative to wild type protein; assay type: ADME, cell-based; details: 2 h
[11] = molecular target: T2, Solute carrier organic anion transporter family member 2B1; test: Drug uptake assessed as human OATP2B1 R607A mutant expressed in Xenopus laevis oocyte mediated drug accumulation at 1 uM after 120 mins by LC-MS/MS method relative to wild type protein; assay type: ADME; details: 2 h
[12] = molecular target: T3, Solute carrier organic anion transporter family member 2B1; test: Drug uptake assessed as human OATP2B1 expressed in Xenopus laevis oocyte mediated drug accumulation per 120 mins per oocyte at 1 uM by LC-MS/MS method; assay type: ADME; details: 2 h
[13] = tested on: C[C@]12CC[C@@H]3c4ccc(OS(=O)(=O)O)cc4CC[C@H]3[C@@H]1CCC2=O; test: Substrate activity at human OATP2B1 H579Q mutant high affinity site expressed in Xenopus laevis oocytes assessed as Km for transporter-mediated drug accumulation after 15 mins by Eadie-Hofstee plot method; assay type: ADME, cell-based
[14] = tested on: C[C@]12CC[C@@H]3c4ccc(OS(=O)(=O)O)cc4CC[C@H]3[C@@H]1CCC2=O; test: Substrate activity at human OATP2B1 H618Q mutant high affinity site expressed in Xenopus laevis oocytes assessed as Km for transporter-mediated drug accumulation after 15 mins by Eadie-Hofstee plot method; assay type: ADME, cell-based
[15] = tested on: C[C@]12CC[C@@H]3c4ccc(OS(=O)(=O)O)cc4CC[C@H]3[C@@H]1CCC2=O; test: Substrate activity at human OATP2B1 H618Q mutant low affinity site expressed in Xenopus laevis oocytes assessed as Km for transporter-mediated drug accumulation after 15 mins by Eadie-Hofstee plot method; assay type: ADME, cell-based
[16] = substrate: CC[C@H](C)C(=O)O[C@H]1C[C@H](O)C=C2C=C[C@H](C)[C@H](CC[C@@H](O)C[C@@H](O)CC(=O)O)[C@H]21; test: (§1) Drug uptake assessed as OATP2B1 low affinity site (unknown origin)-mediated drug uptake; assay type: ADME, Homo sapiens
[17] = substrate: C[C@]12CC[C@@H]3c4ccc(OS(=O)(=O)O)cc4CC[C@H]3[C@@H]1CCC2=O; test: as §1; assay type: ADME, Homo sapiens
[18] = substrate: C[C@]12CC[C@@H]3c4ccc(OS(=O)(=O)O)cc4CC[C@H]3[C@@H]1CCC2=O; test: Substrate activity at human OATP2B1 low affinity site expressed in Xenopus laevis oocytes assessed as Km for transporter-mediated drug accumulation after 15 mins by Eadie-Hofstee plot method; assay type: ADME, cell-based
[19] = substrate: C[C@]12CC[C@@H]3c4ccc(OS(=O)(=O)O)cc4CC[C@H]3[C@@H]1CCC2=O; test: Substrate activity at human OATP2B1 high affinity site expressed in Xenopus laevis oocytes assessed as Km for transporter-mediated drug accumulation after 15 mins by Eadie-Hofstee plot method; assay type: ADME, cell-based
[20] = substrate: O=C(O)c1cc(/N=N/c2ccc(S(=O)(=O)Nc3ccccn3)cc2)ccc1O; test: (§2) Drug uptake assessed as OATP2B1 high affinity site (unknown origin)-mediated drug uptake; assay type: ADME, Homo sapiens
[21] = substrate: CC[C@H](C)C(=O)O[C@H]1C[C@H](O)C=C2C=C[C@H](C)[C@H](CC[C@@H](O)C[C@@H](O)CC(=O)O)[C@H]21; test: as §2; assay type: ADME, Homo sapiens
[22] = substrate: C[C@]12CC[C@@H]3c4ccc(OS(=O)(=O)O)cc4CC[C@H]3[C@@H]1CCC2=O; test: as §2; assay type: ADME, Homo sapiens

T1 sequence (O94956 whole entry T392I/H618Q): as the sequence (O94956 whole entry T392I/R607A) above, with A607R, H618Q counted along it

`CCCCC[C@H](O)/C=C/[C@H]1[C@H](O)CC(=O)[C@@H]1C/C=C\CCCC(=O)O` [DINOPROSTONE] showed a Drug uptake [1] of 97.4%, a Drug uptake [2] of 45.3% and a Drug uptake [3] of 0.461 µL. The Drug uptake [4] was 138%.

Molecule `CC[C@H](C)C(=O)O[C@H]1C[C@H](O)C=C2C=C[C@H](C)[C@H](CC[C@@H](O)C[C@@H](O)CC(=O)O)[C@H]21` [PRAVASTATIN] has a Drug uptake [5] of 40%, a Drug uptake [6] of 0.196 µL and a Drug uptake [7] of 32.5%. It also gave a Drug uptake [8] of 0.2%.

`O=C(O)c1cc(/N=N/c2ccc(S(=O)(=O)Nc3ccccn3)cc2)ccc1O` [SULFASALAZINE] was tested, and the Drug uptake [9] was 41%, the Drug uptake [10] was 22.2% and the Drug uptake [11] was 7.57%. For the same molecule, the Drug uptake [12] was 1.934 µL.

“Solute carrier organic anion transporter family member 2B1 (Homo sapiens; H579Q)” showed a Km [13] of 0.18 µM.

Work on `CC(C)c1nc(N(C)S(C)(=O)=O)nc(-c2ccc(F)cc2)c1/C=C/[C@@H](O)C[C@@H](O)CC(=O)O` [ROSUVASTATIN] yielded a Drug uptake [9] of 39.8%, a Drug uptake [10] of 33.1% and a Drug uptake [11] of 5.79%. The Drug uptake [12] was 2.951 µL.

`CC(C)(C(=O)O)c1ccc(C(O)CCCN2CCC(C(O)(c3ccccc3)c3ccccc3)CC2)cc1` (stereo not given) [FEXOFENADINE] was tested, and the Drug uptake [9] was 147%, the Drug uptake [10] was 121% and the Drug uptake [11] was 28.5%. The Drug uptake [12] was 0.056 µL.

With “Solute carrier organic anion transporter family member 2B1 (Homo sapiens; H618Q)” the Km [14] was 0.149 µM and the Km [15] was 91.1 µM.

B1: Solute carrier organic anion transporter family member 2B1 (Homo sapiens) (protein)
chain: MGPRIGPAGEVPQVPDKETKATMGTENTPGGKASPDPQDVRPSVFHNIKLFVLCHSLLQLAQLMISGYLKSSISTVEKRFGLSSQTSGLLASFNEVGNTALIVFVSYFGSRVHRPRMIGYGAILVALAGLLMTLPHFISEPYRYDNTSPEDMPQDFKASLCLPTTSAPASAPSNGNCSSYTETQHLSVVGIMFVAQTLLGVGGVPIQPFGISYIDDFAHNSNSPLYLGILFAVTMMGPGLAFGLGSLMLRLYVDINQMPEGGISLTIKDPRWVGAWWLGFLIAAGAVALAAIPYFFFPKEMPKEKRELQFRRKVLAVTDSPARKGKDSPSKQSPGESTKKQDGLVQIAPNLTVIQFIKVFPRVLLQTLRHPIFLLVVLSQVCLSSMAAGMATFLPKFLERQFSITASYANLLIGCLSFPSVIVGIVVGGVLVKRLHLGPVGCGALCLLGMLLCLFFSLPLFFIGCSSHQIAGITHQTSAHPGLELSPSCMEACSCPLDGFNPVCDPSTRVEYITPCHAGCSSWVVQDALDNSQVFYTNCSCVVEGNPVLAGSCDSTCSHLVVPFLLLVSLGSALACLTHTPSFMLILRGVKKEDKTLAVGIQFMFLRILAWMPSPVIHGSAIDTTCVHWALSCGRRAVCRYYNNDLLRNRFIGLQFFFKTGSVICFALVLAVLRQQDKEARTKESRSSPAVEQQLLVSGPGKKPEDSRV
B1 gave a Km [16] of 225 µM, a Km [17] of 29.9 µM and a Km [18] of 51.4 µM. For the same molecule, the Km [19] was 0.463 µM, the Km [20] was 1.73 µM and the Km [21] was 6.25 µM. For the same molecule, the Km [22] was 0.1 µM.
